Assay type in all cases: cell-based
Data set [1] concerns human Factor 7 mRNA. In words: Dose-dependent antisense inhibition of human Factor 7 in HepB3 cells, transfection with lipofectin. The note with it: lipofectin, HepB3 cells, 16 hours. In short, it runs like this: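 HepB3 cells (4,000/well) lipofectin-transfected with antisense oligonucleotide at 3.125 or 6.25 up to 100 nM for ~16 h. Factor 7 mRNA measured by real-time RT-PCR with primer probe set RTS 2927, adjusted to RIBOGREEN total RNA; expressed as percent inhibition versus untreated control cells.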

The subject of data set [2] is human Factor 7 mRNA. The experiment in a line: Dose-dependent antisense inhibition of human Factor 7 in HepB3 cells, transfection with electroporation. On the procedure: (§1) The gapmers were also transfected via electroporation and their dose-dependent inhibition of human Factor 7 mRNA was measured. Cells were plated at a density of 20,000 cells per well and transfected via electroporation with 3.125 μM, 6.25 μM, 12.5 μM, 25 μM, 50 μM, and 100 μM concentrations of antisense oligonucleotide, as specified in Table 15. After a treatment period of approximately 16 hours, RNA was isolated from the cells and Factor 7 mRNA levels were measured by quantitative real-time PCR. Human Factor 7 primer probe set RTS 2927 was used to measure mRNA levels. Factor 7 mRNA levels were adjusted according to total RNA content, as measured by RIBOGREEN®. Results are presented as percent inhibition of Factor 7, relative to untreated control cells.
as §1, with “Cells were” for “The gapmers were also transfected via electroporation and their dose-dependent inhibition of human Factor 7 mRNA was measured. Cells were”, “in Table 16. After a” for “in Table 15. After a”, “cells and human Factor 7” for “cells and Factor 7”

The subject of data set [3] is human Factor 7 mRNA. The experiment in a line: Antisense inhibition of human Factor 7 mRNA in HepB3 cells, lipofectin, 50 nM, real-time RT-PCR. The note with it: HepB3 cells. The procedure, abridged: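 HepB3 cells were transfected by lipofectin with 50 nM antisense oligonucleotide and harvested after about 24 h. Factor 7 mRNA was measured by real-time RT-PCR (primer probe set RTS 2927 in some runs), normalized to RIBOGREEN total RNA, and reported as percent inhibition versus untreated control.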
For orientation: In qPCR the cycle at which signal appears reflects the starting amount.

Where [4] appears, read: 3.125 μM, 16 hours (Example 7, Table 15).
The mark [5] stands for this setting: 3.125 μM, 16 hours (Example 8, Table 16).
Setting [6] is: 6.25 μM, 16 hours (Example 7, Table 15).
Setting [7] is: 6.25 μM, 16 hours (Example 8, Table 16).
Setting [8] is: 12.5 μM, 16 hours (Example 7, Table 15).
Where [9] appears, read: 12.5 μM, 16 hours (Example 8, Table 16).
The mark [10] stands for this setting: 25 μM, 16 hours (Example 7, Table 15).
The mark [11] stands for this setting: 25 μM, 16 hours (Example 8, Table 16).
Setting [12] is: 50 μM, 16 hours (Example 7, Table 15).
Setting [13] is: 50 μM, 16 hours (Example 8, Table 16).
Where [14] appears, read: 100 μM, 16 hours (Example 7, Table 15).
[15] abbreviates: 100 μM, 16 hours (Example 8, Table 16).
Where [16] appears, read: gapmers targeted to nucleobases 15188 to 15211 of SEQ ID NO: 1 (Table 13).

In the oligonucleotide strings, read from the 5' end, every base follows the letter of its sugar. An asterisk marks phosphorothioate; unmarked linkages are phosphodiester. Other units and linkages are bracketed, terminal groups are in braces. A string of capitals states the bases alone. e = 2'-O-(2-methoxyethyl) (MOE); [5mC] = 5-methylcytosine; d = 2'-deoxy (DNA)

In the case of “422130 (antisense eG*e[5mC]*e[5mC]*eT*eG*dA*dG*dG*d[5mC]*d[5mC]*dA*dG*d[5mC]*dA*dG*eA*eT*e[5mC]*eA*e[5mC]) [compound 422130]”, the “percent inhibition of Factor 7 mRNA, relative to untreated control cells” value is listed as 4% in the data set with human Factor 7 mRNA [1] (3.125 nM); 34% in the data set on human Factor 7 mRNA [1] (12.5 nM); 59% in the data set with human Factor 7 mRNA [1] (25 nM); 77% in the data set with human Factor 7 mRNA [1] (50 nM); 85% in the data set on human Factor 7 mRNA [1] (100 nM); 15% with human Factor 7 mRNA [1]. The “percent inhibition of Factor 7 mRNA, relative to untreated control cells” value is recorded as 28% in the data set on human Factor 7 mRNA [2] (setting [4]); 14% in the data set on human Factor 7 mRNA [2] (setting [5]); 29% in the data set on human Factor 7 mRNA [2] (setting [6]); 24% with human Factor 7 mRNA [2] (setting [7]); 59% with human Factor 7 mRNA [2] (setting [8]); 61% in the data set on human Factor 7 mRNA [2] (setting [9]). In addition, the “percent inhibition of Factor 7 mRNA, relative to untreated control cells” value worked out at 61% in the data set with human Factor 7 mRNA [2] (setting [10]); 68% with human Factor 7 mRNA [2] (setting [11]); 73% with human Factor 7 mRNA [2] (setting [12]); 82% in the data set with human Factor 7 mRNA [2] (setting [13]); 86% in the data set on human Factor 7 mRNA [2] (setting [14]); 88% in the data set with human Factor 7 mRNA [2] (setting [15]). The “% Inhibition of human Factor 7 mRNA levels” value (“% Inhibition” below) in the data set with human Factor 7 mRNA [3] (gapmers targeted to nucleobases 14707 to 14732 of SEQ ID NO: 1 (Table 11)) was determined as 79%.

“422096 (antisense eA*eG*eA*e[5mC]*eA*dA*dT*dG*dG*dT*d[5mC]*dA*dG*dG*dG*e[5mC]*eT*eG*eG*eT) [compound 422096]”: the “percent inhibition of Factor 7 mRNA, relative to untreated control cells” value in the data set on human Factor 7 mRNA [1] (3.125 nM) was found to be 17%; in the data set with human Factor 7 mRNA [1] (12.5 nM), 43%; in the data set with human Factor 7 mRNA [1] (25 nM), 60%; in the data set with human Factor 7 mRNA [1] (50 nM) it was 68%; with human Factor 7 mRNA [1] (100 nM) it was 82%; in the data set with human Factor 7 mRNA [1], 23%. Besides, the “percent inhibition of Factor 7 mRNA, relative to untreated control cells” value in the data set with human Factor 7 mRNA [2] (setting [4]) was determined as 26%; in the data set on human Factor 7 mRNA [2] (setting [6]), 30%; in the data set with human Factor 7 mRNA [2] (setting [8]) it was 46%; in the data set with human Factor 7 mRNA [2] (setting [10]), 50%; in the data set on human Factor 7 mRNA [2] (setting [12]), 62%; with human Factor 7 mRNA [2] (setting [14]) it was 85%. Besides, in the data set with human Factor 7 mRNA [3] (gapmers targeted to nucleobases 11830 to 11869 of SEQ ID NO: 1 (Table 9)), the “% Inhibition” value turned out to be 76%.

As for “422217 (antisense eG*eA*eG*dT*dT*d[5mC]*dT*dG*d[5mC]*dA*dG*dG*dA*dG*d[5mC]*dG*dG*e[5mC]*e[5mC]*eT) [compound 422217]”, the “percent inhibition of Factor 7 mRNA, relative to untreated control cells” value is given as 8% in the data set on human Factor 7 mRNA [1] (3.125 nM); 45% in the data set on human Factor 7 mRNA [1] (12.5 nM); 63% with human Factor 7 mRNA [1] (25 nM); 79% in the data set with human Factor 7 mRNA [1] (50 nM); 83% in the data set on human Factor 7 mRNA [1] (100 nM); 18% in the data set with human Factor 7 mRNA [1]. Also, the “percent inhibition of Factor 7 mRNA, relative to untreated control cells” value in the data set on human Factor 7 mRNA [2] (setting [4]) was 15%; with human Factor 7 mRNA [2] (setting [6]), 19%; with human Factor 7 mRNA [2] (setting [8]), 29%; in the data set with human Factor 7 mRNA [2] (setting [10]) it was 55%; with human Factor 7 mRNA [2] (setting [12]), 61%; in the data set with human Factor 7 mRNA [2] (setting [14]), 83%. Besides, the “% Inhibition” value in the data set with human Factor 7 mRNA [3] (gapmers (5-10-5, 3-14-3, 2-13-5 MOE) targeted to nucleobases 4868 to 4899 of SEQ ID NO: 1) came to 75%.

Regarding “422152 (antisense eA*eT*eG*d[5mC]*dA*dT*dG*dG*dT*dG*dA*dT*dG*d[5mC]*dT*dT*d[5mC]*eT*eG*eA) [compound 422152]”, the “percent inhibition of Factor 7 mRNA, relative to untreated control cells” value in the data set on human Factor 7 mRNA [1] (3.125 nM) came to 18%; in the data set on human Factor 7 mRNA [1] (12.5 nM), 47%; in the data set with human Factor 7 mRNA [1] (25 nM), 67%; in the data set on human Factor 7 mRNA [1] (50 nM), 83%; with human Factor 7 mRNA [1] (100 nM), 89%; in the data set on human Factor 7 mRNA [1], 29%. The “percent inhibition of Factor 7 mRNA, relative to untreated control cells” value was 14% in the data set on human Factor 7 mRNA [2] (setting [4]); 22% in the data set with human Factor 7 mRNA [2] (setting [6]); 32% in the data set on human Factor 7 mRNA [2] (setting [8]); 44% in the data set with human Factor 7 mRNA [2] (setting [10]); 65% with human Factor 7 mRNA [2] (setting [12]); 76% with human Factor 7 mRNA [2] (setting [14]). Also, in the data set with human Factor 7 mRNA [3] (setting [16]), the “% Inhibition” value was 74%.

As for “422087 (antisense e[5mC]*eA*eT*eG*e[5mC]*dA*dT*dG*dG*dT*dG*dA*dT*dG*d[5mC]*eT*eT*e[5mC]*eT*eG) [compound 422087]”, the “percent inhibition of Factor 7 mRNA, relative to untreated control cells” value was found to be 14% in the data set on human Factor 7 mRNA [1] (3.125 nM); 51% in the data set with human Factor 7 mRNA [1] (12.5 nM); 73% in the data set on human Factor 7 mRNA [1] (25 nM); 83% with human Factor 7 mRNA [1] (50 nM); 90% in the data set on human Factor 7 mRNA [1] (100 nM); 24% with human Factor 7 mRNA [1]. In addition, the “percent inhibition of Factor 7 mRNA, relative to untreated control cells” value with human Factor 7 mRNA [2] (setting [4]) was found to be 22%; in the data set on human Factor 7 mRNA [2] (setting [5]), 19%; in the data set with human Factor 7 mRNA [2] (setting [6]), 26%; in the data set on human Factor 7 mRNA [2] (setting [7]), 38%; in the data set on human Factor 7 mRNA [2] (setting [8]), 48%; in the data set on human Factor 7 mRNA [2] (setting [9]), 66%. The “percent inhibition of Factor 7 mRNA, relative to untreated control cells” value in the data set on human Factor 7 mRNA [2] (setting [10]) is listed as 57%; in the data set on human Factor 7 mRNA [2] (setting [11]) it was 75%; in the data set with human Factor 7 mRNA [2] (setting [12]), 72%; in the data set with human Factor 7 mRNA [2] (setting [13]), 80%; with human Factor 7 mRNA [2] (setting [14]), 80%; with human Factor 7 mRNA [2] (setting [15]), 87%. In the data set on human Factor 7 mRNA [3] (setting [16]), the “% Inhibition” value was 83%.

Regarding “422252 (antisense e[5mC]*eG*d[5mC]*d[5mC]*dG*dG*d[5mC]*dT*d[5mC]*dT*dG*d[5mC]*dT*d[5mC]*dA*eT*e[5mC]*e[5mC]*e[5mC]*e[5mC]) [compound 422252]”, the “percent inhibition of Factor 7 mRNA, relative to untreated control cells” value with human Factor 7 mRNA [1] (3.125 nM) amounted to 18%; in the data set with human Factor 7 mRNA [1] (12.5 nM) it was 45%; in the data set with human Factor 7 mRNA [1] (25 nM) it was 61%; in the data set on human Factor 7 mRNA [1] (50 nM) it was 77%; with human Factor 7 mRNA [1] (100 nM), 87%; in the data set on human Factor 7 mRNA [1], 17%. Besides, the “percent inhibition of Factor 7 mRNA, relative to untreated control cells” value in the data set on human Factor 7 mRNA [2] (setting [4]) is 23%; with human Factor 7 mRNA [2] (setting [6]), 12%; in the data set on human Factor 7 mRNA [2] (setting [8]), 26%; in the data set on human Factor 7 mRNA [2] (setting [10]) it was 38%; in the data set on human Factor 7 mRNA [2] (setting [12]), 58%; with human Factor 7 mRNA [2] (setting [14]) it was 80%. For the same substance, in the data set with human Factor 7 mRNA [3] (gapmers targeted to nucleobases 13760 to 13789 of SEQ ID NO: 1 (Table 10)), the “% Inhibition” value worked out at 70%.
